Assay results taken from patent US6734292B1, “Pseudoerythromycin derivatives” (The Kitasato Institute, priority 2002, dated 2004).

Tested on: THP-1 cells
Experiment: enhancing effect for differentiation-induction from human monocyte to macrophage (THP-1/Mφ system, MTT readout)
Format: cell-based
Parameters: key: ++: enhanced 100% or more; +: enhanced 50-100%; ±: enhanced 25-50%; −: no activity; /: expressed cytoxicity; NT: not tested or under assessment
Conditions: in comparison with enhancing action for differentiation-induction of EM 100 μM
Method: In order to confirm enhancing effect for differentiation-induction of the compounds of the present invention, the enhancing effect for differentiation-induction from human monocyte to macrophage was assayed. Method is performed as follows. THP-1 cells were collected from cultured liquid by centrifugation, adjusted the concentration to 2×10^5 cells/ml using medium (RPMI 1640) and distributed into the 48-well plate at 500 μl/well. PMA solution 10 μl and sample solution 5 μl were added in each well, stirred with mild shaking and incubated at 37° C. for 72-96 hours under 5% CO2. Further MTT 0.5 mg/ml solution was added at 300 μl/well, and incubated at 37° C. for 3 hours under 5% CO2. Supernatant solution was suctioned using the injection tube, added DMSO 500 μl using automatic continuous injector to dissolve formazan completely and transferred each 100 μl to the 96-well plate. The optical absorption was measured using the plate-reader.

SMILES	activities in THP-1/Mφ system, Treated conc. 3 μM	activities in THP-1/Mφ system, Treated conc. 10 μM	activities in THP-1/Mφ system, Treated conc. 1 μM	activities in THP-1/Mφ system, Treated conc. 30 μM	activities in THP-1/Mφ system, Treated conc. 0.3 μM
CCC(O)C(C)(O)C1OC(=O)C(C)C(O)C(C)C(OC2OC(C)CC(N(C)C)C2O)C2(C)CC(C)=C(O2)C1C (stereo not drawn) [EM737, de(3-O-cladinosyl)-8,9-anhydro-pseudo erythromycin A 6,9-hemiketal]	−	+ (enhanced 50-100%)			
CC[C@H]1OC(=O)[C@H](C)[C@@H](O[C@H]2C[C@@](C)(OC)[C@@H](O)[C@H](C)O2)[C@H](C)[C@@H](O[C@@H]2O[C@H](C)C[C@H](N(C)C)[C@H]2O)[C@](C)(O)C[C@@H](C)C(=NO)[C@H](C)[C@@H](O)[C@]1(C)O [EM oxim, reference compound]	± (enhanced 25-50%)	± (enhanced 25-50%)	−	++ (enhanced 100% or more)	
CC[C@H]1OC(=O)[C@H](C)[C@@H](O[C@H]2C[C@@](C)(OC)[C@@H](O)[C@H](C)O2)[C@H](C)[C@@H](O[C@@H]2O[C@H](C)C[C@H](N(C)C)[C@H]2O)[C@](C)(O)C[C@@H](C)C(=O)[C@H](C)[C@@H](O)[C@]1(C)O [EM, Erythromycin]	± (enhanced 25-50%)	+ (enhanced 50-100%)	−	+ (enhanced 50-100%)	
CC[C@@H](O)[C@@](C)(O)[C@@H]1OC(=O)[C@H](C)[C@@H](O[C@H]2C[C@@](C)(OC)[C@@H](O)[C@H](C)O2)[C@H](C)[C@@H](O[C@@H]2O[C@H](C)C[C@H](N(CC)CC)[C@H]2O)[C@@]2(C)CC(C)=C(O2)[C@@H]1C [EM723, bis-de(3′-N-methyl)-3′,3′-N,N-diethyl-8,9-anhydro-pseudoerythromycin A 6,9-hemiketal]	+ (enhanced 50-100%)		+ (enhanced 50-100%)		−
CCC(O)C(C)(O)C1OC(=O)C(C)C(OC2CC(C)(OC)C(O)C(C)O2)C(C)C(OC2OC(C)CC(N3CCCC3)C2O)C2(C)CC(C)=C(O2)C1C (stereo not drawn) [EM735, de(3′-dimethylamino)-3′-pyrrolidino-8,9-anhydro-pseudoerythromycin A 6,9-hemiketal]	+ (enhanced 50-100%)	++ (enhanced 100% or more)	± (enhanced 25-50%)		−
CC[C@@H](O)[C@@](C)(O)[C@@H]1OC(=O)[C@H](C)[C@@H](O[C@H]2C[C@@](C)(OC)[C@@H](O)[C@H](C)O2)[C@H](C)[C@@H](O[C@@H]2O[C@H](C)C[C@H](NC(C)C)[C@H]2O)[C@@]2(C)CC(C)=C(O2)[C@@H]1C [EM736, bis-de(3′-N-methyl)-3′-N-(2-propyl)-8,9-anhydro-pseudoerythromycin A 6,9-hemiketal]	+ (enhanced 50-100%)	++ (enhanced 100% or more)	± (enhanced 25-50%)		−
CC[C@@H](O)[C@@](C)(O)[C@@H]1OC(=O)[C@H](C)[C@@H](O[C@H]2C[C@@](C)(OC)[C@@H](O)[C@H](C)O2)[C@H](C)[C@@H](O[C@@H]2O[C@H](C)C[C@H](N(C)CCOC(C)=O)[C@H]2O)[C@@]2(C)CC(C)=C(O2)[C@@H]1C [EM745, de(3′-N-methyl)-3′-N-(2-acetoxyethyl)-8,9-anhydro-pseudoerythromycin A 6,9-hemiketal]	++ (enhanced 100% or more)	++ (enhanced 100% or more)	−	++ (enhanced 100% or more)	−
COC1(C)CC(OC2C(C)C(=O)OC(C(C)N)C(C)C3=C(C)CC(C)(O3)C(OC3OC(C)CC(N(C)C)C3O)C2C)OC(C)C1O (stereo not drawn) [EM750, de(12-hydroxy)-de[12-(hydroxypropyl)]-12-amino-8,9-anhydro-pseudoerythromycin A 6,9-hemiketal]	−	± (enhanced 25-50%)	−		
CCC(O)C(C)(O)C1OC(=O)C(C)C(OC2CC(C)(OC)C(O)C(C)O2)C(C)C(OC2OC(C)CC(N(C)CC#N)C2O)C2(C)CC(C)=C(O2)C1C (stereo not drawn) [EM742, de(3′-N-methyl)-3′-cyanomethyl-8,9-anhydro-pseudoerythromycin A 6,9-hemiketal]	−	+ (enhanced 50-100%)	−	+ (enhanced 50-100%)	−
CCC(O)C(C)(O)C1OC(=O)C(C)C(OC2CC(C)(OC)C(O)C(C)O2)C(C)C(OC2OC(C)CC(N(C)S(C)(=O)=O)C2O)C2(C)CC(C)=C(O2)C1C (stereo not drawn) [EM727, de(3′-N-methyl)-3′-N-sulfonyl-8,9-anhydro-pseudoerythromycin A 6,9-hemiketal]	+ (enhanced 50-100%)	+ (enhanced 50-100%)	+ (enhanced 50-100%)		−
CCC(O)C(C)(O)C1OC(=O)C(C)C(OC2CC(C)(OC)C(O)C(C)O2)C(C)C(OC2OC(C)CC(N(C)CCF)C2O)C2(C)CC(C)=C(O2)C1C (stereo not drawn) [EM740]	+ (enhanced 50-100%)	+ (enhanced 50-100%)	± (enhanced 25-50%)	+ (enhanced 50-100%)	± (enhanced 25-50%)
COC1(C)CC(OC2C(C)C(=O)OC(C(C)=NO)C(C)C3=C(C)CC(C)(O3)C(OC3OC(C)CC(N(C)C)C3O)C2C)OC(C)C1O (stereo not drawn) [EM743, de(12-hydroxy)-de[12-(1-hydroxypropyl)]-12-hydroxyoxime-8,9-anhydro-pseudoerythromycin A 6,9-hemiketal]	± (enhanced 25-50%)	−	−		
C#CCNC1CC(C)OC(OC2C(C)C(OC3CC(C)(OC)C(O)C(C)O3)C(C)C(=O)OC(C(C)(O)C(O)CC)C(C)C3=C(C)CC2(C)O3)C1O (stereo not drawn) [EM728, bis-de(3′-N-methyl)-3′-N-propargyl-8,9-anhydro-pseudoerythromycin A 6,9-hemiketal]	+ (enhanced 50-100%)	+ (enhanced 50-100%)	+ (enhanced 50-100%)	+ (enhanced 50-100%)	−
CCCN(CCC)C1CC(C)OC(OC2C(C)C(OC3CC(C)(OC)C(O)C(C)O3)C(C)C(=O)OC(C(C)(O)C(O)CC)C(C)C3=C(C)CC2(C)O3)C1O (stereo not drawn) [EM731, bis-de(3′-N-methyl)-3′,3′-N,N-di-propyl-8,9anhydro-pseudoerythromycin A 6,9-hemiketal]	+ (enhanced 50-100%)		−		−
